From paper PMC5383655, “Development of Automated Patch Clamp Technique to Investigate CFTR Chloride Channel Function” (Frontiers in Pharmacology, 2017)

Molecular target: T1, cystic fibrosis transmembrane conductance regulator (CFTR), wt (Homo sapiens, UniProt P13569)
T1 construct: wt-CFTR stably expressed in BHK cells
Assay: automated whole-cell patch clamp, acute potentiation of current activated by […] Fsk on addition of […] compound
Type: cell-based

T1 sequence (P13569 whole entry): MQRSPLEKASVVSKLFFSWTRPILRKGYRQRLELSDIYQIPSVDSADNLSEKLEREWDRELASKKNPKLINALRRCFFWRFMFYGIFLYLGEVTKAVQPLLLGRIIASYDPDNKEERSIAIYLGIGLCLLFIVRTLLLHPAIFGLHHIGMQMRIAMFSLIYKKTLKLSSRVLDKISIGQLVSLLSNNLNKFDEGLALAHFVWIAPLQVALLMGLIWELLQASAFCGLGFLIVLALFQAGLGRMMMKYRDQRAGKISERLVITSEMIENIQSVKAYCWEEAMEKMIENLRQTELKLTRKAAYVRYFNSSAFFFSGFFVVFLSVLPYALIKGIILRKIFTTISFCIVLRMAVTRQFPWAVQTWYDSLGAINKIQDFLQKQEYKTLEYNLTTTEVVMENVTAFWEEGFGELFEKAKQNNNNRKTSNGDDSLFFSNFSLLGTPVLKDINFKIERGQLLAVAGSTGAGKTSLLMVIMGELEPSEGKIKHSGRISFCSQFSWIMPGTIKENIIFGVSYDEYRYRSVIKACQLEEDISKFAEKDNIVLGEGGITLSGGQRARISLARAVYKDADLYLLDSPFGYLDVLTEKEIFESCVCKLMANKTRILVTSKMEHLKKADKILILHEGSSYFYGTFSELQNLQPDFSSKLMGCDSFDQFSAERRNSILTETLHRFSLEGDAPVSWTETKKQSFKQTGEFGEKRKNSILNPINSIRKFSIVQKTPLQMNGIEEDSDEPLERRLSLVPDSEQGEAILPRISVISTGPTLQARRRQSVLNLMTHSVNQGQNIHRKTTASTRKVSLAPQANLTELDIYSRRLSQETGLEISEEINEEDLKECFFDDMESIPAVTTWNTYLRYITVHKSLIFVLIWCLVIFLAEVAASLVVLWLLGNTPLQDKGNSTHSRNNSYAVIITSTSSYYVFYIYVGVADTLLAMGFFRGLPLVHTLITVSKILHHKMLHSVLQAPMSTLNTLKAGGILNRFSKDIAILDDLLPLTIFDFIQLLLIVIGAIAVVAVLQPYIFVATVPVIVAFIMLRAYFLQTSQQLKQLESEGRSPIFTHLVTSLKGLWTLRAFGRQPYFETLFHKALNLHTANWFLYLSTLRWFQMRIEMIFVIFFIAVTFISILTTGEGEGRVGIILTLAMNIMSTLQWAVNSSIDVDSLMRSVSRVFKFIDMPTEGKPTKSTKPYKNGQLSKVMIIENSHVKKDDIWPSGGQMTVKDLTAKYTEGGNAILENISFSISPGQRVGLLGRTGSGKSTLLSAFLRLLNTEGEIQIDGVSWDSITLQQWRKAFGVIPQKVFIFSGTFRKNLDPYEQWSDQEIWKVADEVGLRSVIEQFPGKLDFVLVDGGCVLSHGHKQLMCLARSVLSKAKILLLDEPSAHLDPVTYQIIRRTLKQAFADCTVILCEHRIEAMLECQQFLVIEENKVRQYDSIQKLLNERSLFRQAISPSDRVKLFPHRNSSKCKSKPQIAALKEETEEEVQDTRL

## CC(C)(C)c1cc(C(C)(C)C)c(NC(=O)c2c[nH]c3ccccc3c2=O)cc1O [VX770]
  automated whole-cell patch clamp, acute potentiation of current activated by 1 μ: clearly demonstrate potentiation of the Fsk-activated current by the potentiator VX770
